From US20240376085A1 (Janssen Pharmaceutica NV, priority 2021, published 2024)

Assays:
[1] = test system: IL-17A-induced G-CSF production in human normal keratinocyte (NHK); assay: NHK assay: IL-17A-induced G-CSF production in normal human keratinocytes; type: cell-based; conditions: 24 h, IL-17A 5 ng/mL, average if tested more than once
Method in brief: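 Compound titrations are first mixed with recombinant human IL-17A for 1 h at room temperature. The mixture goes onto adult normal human keratinocytes (final IL-17A 5 ng/mL, 5% FBS, 0.2% DMSO) for 24 h at 37 °C. Secreted G-CSF is then measured by HTRF and IC50 fitted.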

[2] = target: T1, IL-17A : IL-17RA binding (Homo sapiens, UniProt Q16552, K93Q); assay: IL-17A(FLAG-tagged):IL-17RA(His-tagged) binding disruption Eu-HTRF assay, Protocol 1; conditions: FLAG-IL-17A 2.5 nM at 2x final concentration; average if tested more than once
T1 construct: Name: IL-17A-Flag
Method in brief: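 IC50 came from a one-site competition fit of the acceptor/donor (665/620 nm) HTRF ratio. His-tagged IL-17RA, Eu-anti-FLAG and D2-anti-His were added after a 1 h rt compound preincubation with FLAG-tagged IL-17A dimer in PBS/0.01% Triton X-100, followed by 2 h at rt before reading.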

T1 sequence (Q16552 with tags, fused parts or gaps K93Q): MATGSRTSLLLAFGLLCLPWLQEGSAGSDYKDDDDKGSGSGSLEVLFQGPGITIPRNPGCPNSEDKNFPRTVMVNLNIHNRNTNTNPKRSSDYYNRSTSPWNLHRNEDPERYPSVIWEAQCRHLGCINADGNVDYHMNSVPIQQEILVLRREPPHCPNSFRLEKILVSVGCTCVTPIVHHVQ

| IC50 [2] [nM] | SMILES | IC50 ([1]; Homo sapiens, Keratinocyte) [nM] | IC50 [1] [nM] |
| --- | --- | --- | --- |
| > 100 | C[C@@H](NC(=O)CCC(F)(F)F)c1ccc2[nH]c(C(CC(C)(C)C(F)(F)F)NC(=O)c3cnn(CC4CC4)n3)nc2c1 (single isomer, unassigned) [Example 191, 2-(Cyclopropylmethyl)-N—((R*)-4,4,4-trifluoro-3,3-dimethyl-1-(5-((R)-1-(4,4,4-trifluorobutanamido)ethyl)-1H-benzo[d]imidazol-2-yl)butyl)-2H-1,2,3-triazole-4-carboxamide] | > 100 |  |
| > 100 | C[C@@H](NC(=O)CCC(F)(F)F)c1ccc2nc([C@@H](NC(=O)c3cnn(CCC(C)(C)C)n3)C3CCC(F)(F)CC3)[nH]c2c1 [Example 67, N—((S)-(4,4-Difluorocyclohexyl)(6-((R)-1-(4,4,4-trifluorobutanamido)ethyl)-1H-benzo[d]imidazol-2-yl)methyl)-2-(3,3-dimethylbutyl)-2H-1,2,3-triazole-4-carboxamide] | > 100 |  |
| > 100 | C[C@@H](NC(=O)CCC(F)(F)F)c1ccc2[nH]c([C@@H](NC(=O)c3cnn(CC(F)F)n3)C3CCC(F)(F)CC3)nc2c1 [Example 37, N—[(S)-(4,4-Difluorocyclohexyl)-[6-[(1R)-1-(4,4,4-trifluorobutanoylamino)ethyl]-1H-benzimidazol-2-yl]methyl]-2-(2,2-difluoroethyl)triazole-4-carboxamide] | > 100 |  |
| > 100 | C[C@@H](NC(=O)CCC(F)(F)F)c1ccc2[nH]c([C@@H](NC(=O)c3cnn(CC4CC(F)(F)C4(F)F)n3)C3CCC(F)(F)CC3)nc2c1 (stereo partly drawn) [Example 83, N—((S)-(4,4-Difluorocyclohexyl)(5-((R)-1-(4,4,4-trifluorobutanamido)ethyl)-1H-benzo[d]imidazol-2-yl)methyl)-2-((2,2,3,3-tetrafluorocyclobutyl)methyl)-2H-1,2,3-triazole-4-carboxamide] | > 100 |  |
| > 100 | Cn1nccc1C(=O)N[C@H](c1nc2cc(C(CC3CCC3)NC(=O)CCC(F)(F)F)ccc2[nH]1)C1CCC(F)(F)CC1 (single isomer, unassigned) [Example 46, N—((S)-(5-((S*)-2-Cyclobutyl-1-(4,4,4-trifluorobutanamido)ethyl)-1H-benzo[d]imidazol-2-yl)(4,4-difluorocyclohexyl)methyl)-1-methyl-1H-pyrazole-5-carboxamide] | > 100 |  |
| < 50 | Cc1nonc1C(=O)N[C@H](c1nc2cc([C@H](NC(=O)CC3CC(F)(F)C3)C3CC3)ccc2[nH]1)C1CCC(F)(F)CC1 [Example 141, N—((S)-(5-((R)-Cyclopropyl(2-(3,3-difluorocyclobutyl)acetamido)methyl)-1H-benzo[d]imidazol-2-yl)(4,4-difluorocyclohexyl)methyl)-4-methyl-1,2,5-oxadiazole-3-carboxamide] | < 50 |  |
| < 50 | Cc1nonc1C(=O)N[C@H](c1nc2ccc([C@H](NC(=O)CC3CC(F)(F)C3)C3CC3)cc2[nH]1)[C@@H]1C[C@@H]2[C@H](C1)C2(F)F [Example 237, N—((S)-(6-((R)-Cyclopropyl(2-(3,3-difluorocyclobutyl)acetamido)methyl)-1H-benzo[d]imidazol-2-yl)((1R,3s,5S)-6,6-difluorobicyclo[3.1.0]hexan-3-yl)methyl)-4-methyl-1,2,5-oxadiazole-3-carboxamide] | 50 to 100 |  |
| > 100 | Cc1nonc1C(=O)N[C@H](c1nc2ccc([C@H](NC(=O)CC3CC(F)(F)C3)C3CC3)cc2[nH]1)C1CCC(F)(F)CO1 (single isomer, unassigned) [Example 260, N—((R)-(6-((R)-Cyclopropyl(2-(3,3-difluorocyclobutyl)acetamido)methyl)-1H-benzo[d]imidazol-2-yl)((S*)-5,5-difluorotetrahydro-2H-pyran-2-yl)methyl)-4-methyl-1,2,5-oxadiazole-3-carboxamide] | > 100 |  |
| > 100 | C[C@@H](NC(=O)CCC(F)(F)F)c1ccc2[nH]c([C@@H](NC(=O)c3coc(CCC(F)(F)F)n3)C3CCC(F)(F)CC3)nc2c1 [Example 225, N—((S)-(4,4-Difluorocyclohexyl)(5-((R)-1-(4,4,4-trifluorobutanamido)ethyl)-1H-benzo[d]imidazol-2-yl)methyl)-2-(3,3,3-trifluoropropyl)oxazole-4-carboxamide] | > 100 |  |
| > 100 | CCn1ncc(C(=O)N[C@H](c2nc3cc([C@@H](C)NC(=O)CCC(F)(F)F)ccc3[nH]2)C2CCC(F)(F)CC2)n1 [Example 7, N—[(S)-(4,4-Difluorocyclohexyl)-[6-[(1R)-1-(4,4,4-trifluorobutanoylamino)ethyl]-1H-benzimidazol-2-yl]methyl]-2-ethyl-triazole-4-carboxamide] | > 100 |  |
| > 100 | C[C@@H](NC(=O)CCC(F)(F)F)c1ccc2[nH]c([C@@H](NC(=O)c3cnnn3CC3CCC3(F)F)C3CCC(F)(F)CC3)nc2c1 (stereo partly drawn) [Example 86, 1-((2,2-Difluorocyclobutyl)methyl)-N—((S)-(4,4-difluorocyclohexyl)(5-((R)-1-(4,4,4-trifluorobutanamido)ethyl)-1H-benzo[d]imidazol-2-yl)methyl)-1H-1,2,3-triazole-5-carboxamide] | > 100 |  |
| > 100 | Cc1c(C(=O)N[C@H](c2nc3cc([C@@H](C)NC(=O)CCC(F)(F)F)ccc3[nH]2)C2CCC(F)(F)CC2)cnn1CCC(F)(F)F [Example 5, N—[(S)-(4,4-Difluorocyclohexyl)-[6-[(1R)-1-(4,4,4-trifluorobutanoylamino)ethyl]-1H-benzimidazol-2-yl]methyl]-5-methyl-1-(3,3,3-trifluoropropyl)pyrazole-4-carboxamide] | > 100 |  |
| < 50 | CC(CC(=O)N[C@@H](c1ccc2[nH]c([C@H](COC(C)(C)C(F)(F)F)NC(=O)c3nonc3C3CC3)nc2c1)C1CC1)C(F)F (single isomer, unassigned) [Example 176, 4-Cyclopropyl-N—((R)-1-(5-((R)-cyclopropyl((S*)-4,4-difluoro-3-methylbutanamido)methyl)-1H-benzo[d]imidazol-2-yl)-2-((1,1,1-trifluoro-2-methylpropan-2-yl)oxy)ethyl)-1,2,5-oxadiazole-3-carboxamide] |  | > 100 |
| < 50 | CCc1nonc1C(=O)NC(CC(C)(C)C(F)(F)F)c1nc2cc([C@@H](C)NC(=O)CCC(F)(F)F)ccc2[nH]1 (single isomer, unassigned) [Example 197, 4-Ethyl-N—((S*)-4,4,4-trifluoro-3,3-dimethyl-1-(5-((R)-1-(4,4,4-trifluorobutanamido)ethyl)-1H-benzo[d]imidazol-2-yl)butyl)-1,2,5-oxadiazole-3-carboxamide] | 50 to 100 |  |
| > 100 | C[C@@H](NC(=O)CCC(F)(F)F)c1ccc2[nH]c([C@@H](NC(=O)c3cn(CCC(F)(F)F)cn3)C3CCC(F)(F)CC3)nc2c1 [Example 226, N—((S)-(4,4-Difluorocyclohexyl)(5-((R)-1-(4,4,4-trifluorobutanamido)ethyl)-1H-benzo[d]imidazol-2-yl)methyl)-1-(3,3,3-trifluoropropyl)-1H-imidazole-4-carboxamide] | > 100 |  |
| > 100 | CCCC(NC(=O)CCC(F)(F)F)c1ccc2[nH]c([C@@H](NC(=O)c3ccnn3C)C3CCC(F)(F)CC3)nc2c1 (single isomer, unassigned) [Example 51, N—((S)-(4,4-Difluorocyclohexyl)(5-((R*)-1-(4,4,4-trifluorobutanamido)butyl)-1H-benzo[d]imidazol-2-yl)methyl)-1-methyl-1H-pyrazole-5-carboxamide] |  | 50 to 100 |
| 50 to 100 | Cc1nonc1C(=O)N[C@H](c1nc2cc([C@H](NC(=O)CC(C)C(F)(F)F)C3CC3)ccc2[nH]1)[C@@H]1CCCC(F)(F)C1 (single isomer, unassigned) [Example 258, N—((S)-(5-((R)-Cyclopropyl((R*)-4,4,4-trifluoro-3-methylbutanamido)methyl)-1H-benzo[d]imidazol-2-yl)((R)-3,3-difluorocyclohexyl)methyl)-4-methyl-1,2,5-oxadiazole-3-carboxamide] | 50 to 100 |  |
| < 50 | CC(C)n1nccc1C(=O)N[C@H](c1nc2ccc([C@H](NC(=O)CC3CC(F)(F)C3)C3CC3)cc2[nH]1)[C@@H]1C[C@@H]2[C@H](C1)C2(F)F [Example 238, N—((S)-(6-((R)-Cyclopropyl(2-(3,3-difluorocyclobutyl)acetamido)methyl)-1H-benzo[d]imidazol-2-yl)((1R,3s,5S)-6,6-difluorobicyclo[3.1.0]hexan-3-yl)methyl)-1-isopropyl-1H-pyrazole-5-carboxamide] | < 50 |  |
| > 100 | C[C@@H](NC(=O)CCC(F)(F)F)c1ccc2[nH]c([C@@H](NC(=O)[C@@H]3C[C@H]3C(F)(F)F)C3CCC(F)(F)CC3)nc2c1 (relative stereo) [Example 106, trans-(1R*,2R*)—N—((S)-(4,4-Difluorocyclohexyl)(5-((R)-1-(4,4,4-trifluorobutanamido)ethyl)-1H-benzo[d]imidazol-2-yl)methyl)-2-(trifluoromethyl)cyclopropane-1-carboxamide] | > 100 |  |
| > 100 | CC(NC(=O)CCC(F)(F)F)c1ccc2nc([C@H](CC(C)(C)C(F)(F)F)NC(=O)c3ccnn3C(C)C)[nH]c2c1 (single isomer, unassigned) [Example 231, 1-Isopropyl-N—((S)-4,4,4-trifluoro-3,3-dimethyl-1-(6-((S*)-1-(4,4,4-trifluorobutanamido)ethyl)-1H-benzo[d]imidazol-2-yl)butyl)-1H-pyrazole-5-carboxamide] | > 100 |  |
